Assay results published in ChEMBL document CHEMBL3885861, “Open TG-GATES”.

Organism: Rattus norvegicus
Assay: Open TG-GATES - Regimen: Single
Assay type: toxicity, organism-based, Sprague-Dawley
Parameters: regimen Single, gender Male, age 6 weeks
Conditions: in vivo, po, 40 mg/kg, route gavage, dose level Low; for APTT / Bas / Eos / Fbg / Hb / Ht / Lym / MCH / MCHC / MCV / Mono / Neu / PT / Plat / RBC / Ret / WBC: tissue Blood; for KIDNEY_L / KIDNEY_R / KIDNEY_TOTAL: tissue Kidney; for LIVER: tissue Liver; for A/G / ALP / ALT / AST / BUN / CRE / Ca / Cl / DBIL / GLC / IP / K / LDH / Na / PL / RALB / TBIL / TC / TG / TP / gamma-GTP: tissue Plasma

For COc1ccc(Cc2nccc3cc(OC)c(OC)cc23)cc1OC [PAPAVERINE], the TERMINAL_BW (3 h) was 231 g, the APTT (3 h) was 22.7 s and the Bas (3 h) was 0%. The Eos (3 h) was 0.8%, the Fbg (3 h) was 308.6 mg/dL and the Hb (3 h) was 13.3 g/dL. For the same compound, the Ht (3 h) was 39.9%, the Lym (3 h) was 77% and the MCH (3 h) was 20.8 pg. It also gave an MCHC (3 h) of 33.4%, an MCV (3 h) of 62.1 fL and a Mono (3 h) of 2.2%. It also gave a Neu (3 h) of 19%, a PT (3 h) of 15.5 s and a Plat (3 h) of 111.6 x10_4/uL. For the same compound, the RBC (3 h) was 643.2 x10_4/ul, the Ret (3 h) was 8.1% and the WBC (3 h) was 104.1 x10_2/uL. The KIDNEY_L (3 h) was 0.9 g, the KIDNEY_R (3 h) was 0.9 g and the KIDNEY_TOTAL (3 h) was 1.9 g. For the same compound, the LIVER (3 h) was 10.4 g, the A/G (3 h) was 1.2 and the ALP (3 h) was 1691.2 IU/L. For the same compound, the ALT (3 h) was 41.2 IU/L, the AST (3 h) was 79 IU/L and the BUN (3 h) was 13.4 mg/dL. For the same compound, the CRE (3 h) was 0.1 mg/dL, the Ca (3 h) was 11.1 mg/dL and the Cl (3 h) was 107.2 meq/L. The DBIL (3 h) was 0 mg/dL, the GLC (3 h) was 179 mg/dL and the IP (3 h) was 7.7 mg/dL. The K (3 h) was 4 meq/L, the LDH (3 h) was 190.4 IU/L and the Na (3 h) was 141.6 meq/L. For the same compound, the PL (3 h) was 135 mg/dL, the RALB (3 h) was 3 g/dL and the TBIL (3 h) was 0.006 mg/dL. It also gave a TC (3 h) of 75.2 mg/dL, a TG (3 h) of 65.6 mg/dL and a TP (3 h) of 5.4 g/dL. For the same compound, the gamma-GTP (3 h) was 1.6 IU/L, the TERMINAL_BW (6 h) was 221.8 g and the APTT (6 h) was 21.2 s. It also gave a Bas (6 h) of 0%, an Eos (6 h) of 0.8% and a Fbg (6 h) of 322.4 mg/dL. The Hb (6 h) was 13.4 g/dL, the Ht (6 h) was 39.9% and the Lym (6 h) was 78.2%. The MCH (6 h) was 20.7 pg, the MCHC (6 h) was 33.7% and the MCV (6 h) was 61.5 fL. For the same compound, the Mono (6 h) was 2.8%, the Neu (6 h) was 16.8% and the PT (6 h) was 15.8 s. The Plat (6 h) was 129.6 x10_4/uL, the RBC (6 h) was 647.8 x10_4/ul and the Ret (6 h) was 7.6%. It also gave a WBC (6 h) of 105.5 x10_2/uL, a KIDNEY_L (6 h) of 1 g and a KIDNEY_R (6 h) of 1 g. It also gave a KIDNEY_TOTAL (6 h) of 1.9 g, an LIVER (6 h) of 9.4 g and an A/G (6 h) of 1.2. The ALP (6 h) was 1422 IU/L, the ALT (6 h) was 36.2 IU/L and the AST (6 h) was 72.4 IU/L. The BUN (6 h) was 10.6 mg/dL, the CRE (6 h) was 0.1 mg/dL and the Ca (6 h) was 11.1 mg/dL. For the same compound, the Cl (6 h) was 106.8 meq/L, the DBIL (6 h) was 0.002 mg/dL and the GLC (6 h) was 179.8 mg/dL. For the same compound, the IP (6 h) was 8.9 mg/dL, the K (6 h) was 4.3 meq/L and the LDH (6 h) was 161.2 IU/L. For the same compound, the Na (6 h) was 140.6 meq/L, the PL (6 h) was 124.6 mg/dL and the RALB (6 h) was 3 g/dL. The TBIL (6 h) was 0.012 mg/dL, the TC (6 h) was 71.4 mg/dL and the TG (6 h) was 64 mg/dL. It also gave a TP (6 h) of 5.4 g/dL, a gamma-GTP (6 h) of 2.2 IU/L and a TERMINAL_BW (9 h) of 221.9 g. It also gave an APTT (9 h) of 21 s, a Bas (9 h) of 0% and an Eos (9 h) of 1%. For the same compound, the Fbg (9 h) was 325 mg/dL, the Hb (9 h) was 13.5 g/dL and the Ht (9 h) was 40.5%. The Lym (9 h) was 78.6%, the MCH (9 h) was 20.4 pg and the MCHC (9 h) was 33.4%. For the same compound, the MCV (9 h) was 61.2 fL, the Mono (9 h) was 3% and the Neu (9 h) was 16.6%. For the same compound, the PT (9 h) was 15.4 s, the Plat (9 h) was 114.2 x10_4/uL and the RBC (9 h) was 661.8 x10_4/ul. The Ret (9 h) was 7.6%, the WBC (9 h) was 78.8 x10_2/uL and the KIDNEY_L (9 h) was 1 g. For the same compound, the KIDNEY_R (9 h) was 1 g, the KIDNEY_TOTAL (9 h) was 1.9 g and the LIVER (9 h) was 9.4 g. It also gave an A/G (9 h) of 1.3, an ALP (9 h) of 1463.2 IU/L and an ALT (9 h) of 37 IU/L. For the same compound, the AST (9 h) was 70.2 IU/L, the BUN (9 h) was 11 mg/dL and the CRE (9 h) was 0.1 mg/dL. It also gave a Ca (9 h) of 11.1 mg/dL, a Cl (9 h) of 107.4 meq/L and a DBIL (9 h) of 0 mg/dL. For the same compound, the GLC (9 h) was 183.6 mg/dL, the IP (9 h) was 9.2 mg/dL and the K (9 h) was 4 meq/L. The LDH (9 h) was 150.2 IU/L, the Na (9 h) was 140.6 meq/L and the PL (9 h) was 133.6 mg/dL. It also gave an RALB (9 h) of 3 g/dL, a TBIL (9 h) of 0.02 mg/dL and a TC (9 h) of 73.2 mg/dL. The TG (9 h) was 69.8 mg/dL, the TP (9 h) was 5.4 g/dL and the gamma-GTP (9 h) was 1.6 IU/L. The TERMINAL_BW (24 h) was 234.3 g, the APTT (24 h) was 21.8 s and the Bas (24 h) was 0%. The Eos (24 h) was 0.8%, the Fbg (24 h) was 309.2 mg/dL and the Hb (24 h) was 13.5 g/dL. It also gave a Ht (24 h) of 40.7%, a Lym (24 h) of 82.6% and an MCH (24 h) of 21.3 pg. For the same compound, the MCHC (24 h) was 33.3%, the MCV (24 h) was 63.9 fL and the Mono (24 h) was 2.4%. The Neu (24 h) was 13.2%, the PT (24 h) was 16.3 s and the Plat (24 h) was 114.1 x10_4/uL. It also gave an RBC (24 h) of 636.4 x10_4/ul, a Ret (24 h) of 7.1% and a WBC (24 h) of 90.3 x10_2/uL. It also gave a KIDNEY_L (24 h) of 1 g, a KIDNEY_R (24 h) of 1 g and a KIDNEY_TOTAL (24 h) of 2 g. For the same compound, the LIVER (24 h) was 10.8 g, the A/G (24 h) was 1.3 and the ALP (24 h) was 1546.4 IU/L. It also gave an ALT (24 h) of 47 IU/L, an AST (24 h) of 79 IU/L and a BUN (24 h) of 16.2 mg/dL. The CRE (24 h) was 0.1 mg/dL, the Ca (24 h) was 10.6 mg/dL and the Cl (24 h) was 107.4 meq/L. For the same compound, the DBIL (24 h) was 0 mg/dL, the GLC (24 h) was 195.4 mg/dL and the IP (24 h) was 6.9 mg/dL. The K (24 h) was 4.4 meq/L, the LDH (24 h) was 207.6 IU/L and the Na (24 h) was 142.8 meq/L. For the same compound, the PL (24 h) was 126.6 mg/dL, the RALB (24 h) was 3.1 g/dL and the TBIL (24 h) was 0.004 mg/dL. It also gave a TC (24 h) of 67.6 mg/dL, a TG (24 h) of 123 mg/dL and a TP (24 h) of 5.4 g/dL. For the same compound, the gamma-GTP (24 h) was 1.2 IU/L.
